The values below come from patent publication US8906953B2, “Pyrrolidine substitute flavones for the treatment of inflammatory disorders” (Piramal Enterprises Limited, priority 2010, dated 2014).

For the assay, the system named is arthritic (CIA) DBA/1J mice. Briefly: Collagen induced arthritis in mouse. It is filed as in vivo. To be noted: Enbrel 3 mg/kg s.c. once daily, 23 days. The protocol:
The assay was designed as in reference, J. Exp. Med., 1985, 162, 637-646, the disclosure of which is incorporated herein by reference for the teaching of the assay.
Male DBA/1J mice (originally procured from Jackson Laboratories, USA), aged 8-10 weeks were immunized with an emulsion equivalent to 200 μg of type II collagen in Freund's Complete Adjuvant, injected intradermally at the base of the tail. A booster shot with the same emulsion was given 21 days later. A group of naïve mice was maintained alongside.
From day 23 to day 56, mice were examined daily once for the signs of rheumatoid arthritis, using the Articular Index and paw thickness as parameters. Articular Index scoring was performed employing the following criteria:
Mice with a minimum hind paw score of 2 were inducted into the study.
Mice were randomized into the various study groups and orally administered the vehicle (0.5% CMC, 1 ml/kg), test compound (compound of example 3, 50 mg/kg twice daily) and standard compound (Enbrel, 3 mg/kg, s.c., once daily). […] The dosing of the compounds was done for 23 days.
The following parameters were observed and recorded daily, • 1. Body weight • 2. Articular index • 3. Paw thickness in mm using a tension free caliper • 4. Any significant observation regarding the condition of the animal. […]
The results are graphically depicted in FIG. 3 (Articular index versus days of treatment) and FIG. 4 (Paw thickness versus days of treatment). Data obtained during the course of this study (articular index and paw thickness) was statistically evaluated by applying Mann-Whitney U test.
Mice were humanely euthanized and the hind paws were harvested from each animal, fixed in 10% neutral buffered formalin, decalcified in 5% formic acid and embedded in paraffin. Section […] were stained with either hematoxylin and eosin or safranin 0 and evaluated microscopically. Histopathological changes were scored as follows: mild (score=1), moderate (score=2) or severe (score=3) for the parameters of cellular infiltration, bone erosions and cartilage damage, graded separately. […]

For the substance Enbrel, the “Severity of disease by articular index and paw thickness” value was “significant reduction in the severity of the disease”.
